Values quoted from earlier work as cited in EP4692316A1, “MICROCARRIER FOR CELL CULTURE, METHOD FOR PREPARING MICROCARRIER FOR CELL CULTURE, AND CELL CULTURE COMPOSITION USING SAME” (LG Chem, Ltd., priority 2024, dated 2025).

Conditions: monomer or oil as supplied

SMILES | density
C=Cc1ccc(C)cc1 [methylstyrene] | 0.89 to 0.92 g/mL
C=Cc1ccc(C(C)(C)C)cc1 [4-tert-butyl styrene] | 0.875 g/mL
C=Cc1ccc(C)cc1C [2,4-Dimethylstyrene] | 0.906 g/mL
C=Cc1c(C)cc(C)cc1C [trimethylstyrene] | 0.906 g/mL
